Laboratory results as given in US8916709B2, “1,2,4-oxadiazole and 1,2,4-thiadiazole β-lactamase inhibitors” (priority 2012, dated 2014).
Structures can show the parent of a compound that is named as a salt.

Columns and labels:
[1] = test system: bacterial strains that express OXA-15 β-lactamases; test: Standard BLI potentiation MIC / synergy MIC assays, strains expressing OXA-15; format: cell-based, E. coli; conditions: in combination with a β-lactam; versus Avibactam (comparator compound CCC)
Excerpt: (§1) A set of β-lactamase expressing isogenic E. coli strains was constructed by cloning a β-lactamase gene into a customized derivative of pBR322 (GenBank Accession Number J01749) and transforming the engineered plasmids into E. coli. The NdeI restriction site within the plasmid backbone of pBR322 was removed to generate pBR322ΔNdeI. The pBR322ΔNdeI vector itself, minus the blaTEM-1 gene, was amplified using two primers: (1) pBR-Pbla 5′-[…]-3, SEQ ID 1, a primer with an engineered NdeI restriction site at the 3′ end of the blaTEM-1 promoter and (2) pBR-vec-1 5′-[…]-3′, SEQ ID 2, a primer with an engineered BamHI restriction site at the 3′ end of the blaTEM-1 open reading frame. The chloramphenicol resistance gene, cat, was generated by PCR amplification from pKD3 (GenBank Accession Number AY048742) using primers with an engineered NdeI restriction site at the 5′ end (Pbla-cat 5′-[…]-3′, SEQ ID 3) and an engineered BamHI restriction site at the 3′ end (Vec-1-cat 5′-[…]-3′, SEQ ID 4) of the resistance gene. The two PCR products, pBR322ΔNdeI and cat were ligated together generating pBR-CBST (pBR322ΔNdeI ΔTEM-1::cat Seq. ID 5) which retains both the pBR322 tetracycline resistance cassette, tetA, and the plasmid origin of replication but the blaTEM-1 gene was replaced by the cat gene.
(§2) Using this engineering strategy a number of plasmids producing β-lactamase genes from different classes (see below) were generated using synthetic genes with an engineered NdeI restriction site at the 5′ end and BamHI restriction site at the 3′ end of each gene (GenScript). Both the synthetic β-lactamase genes and cat gene were ligated into the NdeI/BamHI sites of the pBR322ΔNdeI PCR product and transformed into electrocompetent E. coli ElectroMax DH10B (Invitrogen/Life Technologies). E. coli DH10B harboring the recombinant plasmids were selected on LB agar (supplemented with 25 μg/mL tetracycline) and single isolated colonies were then inoculated into 5 mL LB media (supplemented with 25 μg/mL tetracycline), and incubated at 37° C. with aeration (250 rpm) for 18 hrs. The cultures were frozen back at −80° C. in 20% glycerol. The DNA sequence of the cloned β-lactamase genes was confirmed. The β-lactamase gene expression in the recombinant E. coli strains was driven by the blaTEM-1 promoter in the pBR-CBST plasmid and was characterized by MIC profiling of the E. coli recombinant strains against comparator β-lactam/BLI combinations in broth microdilution assay. […]

[2] = test system: bacterial strains that express KPC β-lactamases; test: Standard BLI potentiation MIC / synergy MIC assays, strains expressing KPC; format: cell-based; conditions: in combination with a β-lactam; versus Avibactam
Excerpt: as §1, §2

SMILES | activity against strains that express OXA-15 β-lactamases compared with Avibactam [1] | activity / spectrum of activity against strains that express KPC β-lactamases compared with Avibactam [2]
O=C1N2C[C@@H](CC[C@H]2c2ncno2)N1OS(=O)(=O)O [Compound 801, (2S,5R)-2-(1,2,4-oxadiazol-5-yl)-7-oxo-1,6-diazabicyclo[3.2.1]octan-6-yl hydrogen sulfate] | more active than Avibactam | more active than, and/or show a better spectrum of activity than Avibactam
CCCC[N+](CCCC)(CCCC)CCCC.Nc1noc([C@@H]2CC[C@@H]3CN2C(=O)N3OS(=O)(=O)[O-])n1 [Compound 802, (2S,5R)-2-(3-amino-1,2,4-oxadiazol-5-yl)-7-oxo-1,6-diaza-bicyclo[3.2.1]octan-6-yl tetrabutylaminooxy sulfonate] | more active than Avibactam | more active than, and/or show a better spectrum of activity than Avibactam
O=C1N2C[C@@H](CC[C@H]2c2ncon2)N1OS(=O)(=O)O [Compound 804, (2S,5R)-2-(1,2,4-oxadiazol-3-yl)-7-oxo-1,6-diazabicyclo[3.2.1]octan-6-yl hydrogen sulfate] | more active than Avibactam | more active than, and/or show a better spectrum of activity than Avibactam
Nc1nc([C@@H]2CC[C@@H]3CN2C(=O)N3OS(=O)(=O)O)no1 [Compound 805, (2S,5R)-2-(5-amino-1,2,4-oxadiazol-3-yl)-7-oxo-1,6-diazabicyclo[3.2.1]octan-6-yl hydrogen sulfate] | more active than Avibactam | more active than, and/or show a better spectrum of activity than Avibactam
